In patent publication US10323020B2, “Substituted piperidinyl tetrahydroquinolines” (Bayer Pharma Aktiengesellschaft, priority 2013, dated 2019):
Structures can show the parent of a compound that is named as a salt.

Key:
[1] = target: recombinant human α2C receptor (Homo sapiens (Human), UniProt P18825); experiment: Antagonism against the adrenoreceptor α2C (luminescence, noradrenaline-stimulated CHO cells); type: cell-based; conditions: noradrenaline 20 nM; CHO cell line with Gαqi3 and mtOb
Method: Antagonism against the adrenoreceptor α1A was tested using a recombinant human α1A receptor CHO cell line which additionally also recombinantly expresses mtAeq (mitochondrial aequorin). Antagonism against the adrenoreceptor α2A was tested using a recombinant human α2A-Gα16 receptor fusion protein CHO cell line (PerkinElmer Life Sciences) which additionally also recombinantly expresses mtAeq. Antagonism against the adrenoreceptor α2B was tested using a recombinant human α2B receptor CHO cell line (PerkinElmer Life Sciences) which additionally also recombinantly expresses mtAeq. Antagonism against the adrenoreceptor α2C was tested using a recombinant human α2C receptor CHO cell line which additionally also recombinantly expresses a chimaric G protein (Gαqi3) and mtOb (mitochondrial obelin).
The cells were cultivated at 37° C. and 5% CO2 in Dulbecco's modified Eagle's Medium/NUT mix F12 with L-glutamine which additionally contains 10% (v/v) inactivated foetal calf serum, 1 mM sodium pyruvate, 0.9 mM sodium bicarbonate, 50 U/ml penicillin, 50 μg/ml streptomycin, 2.5 μg/ml amphotericin B and 1 mg/ml Geneticin. The cells were passaged with enzyme-free Hank's-based cell dissociation buffer. All cell culture reagents used were from Invitrogen (Carlsbad, USA).
Luminescence measurements were carried out on white 384-well microtitre plates. 2000 cells/well were plated in a volume of 25 μl and cultivated for one day at 30° C. and 5% CO2 in cell culture medium with coelenterazine (α2A and α2B: 5 μg/ml; α1a/c and α2C: 2.5 μg/ml). Serial dilutions of the test substances (10 μl) were added to the cells. After 5 minutes, noradrenaline was added to the cells (35 μl; final concentrations: 20 nM (α1a/c and α2C) or 200 nM (α2A and α2B)), and the emitted light was measured for 50 seconds using a CCD (charge-coupled device) camera (Hamamatsu Corporation, Shizuoka, Japan) in a light-tight box. The test substances were tested up to a maximum concentration of 10 μM. The IC50 values were calculated from the appropriate dose-response curves.

[2] = system: conscious female Wistar rats; experiment: Radiotelemetric measurement of blood pressure and heart rate of conscious rats; type: in vivo, rat; conditions: oral 10 mg/kg
Text: A commercially available telemetry system from Data Sciences International DSI, USA, was employed for the measurements on conscious rats described below. The system consists of 3 main components: (1) implantable transmitters (Physiotel® telemetry transmitter), (2) receivers (Physiotel® receiver), which are linked via a multiplexer (DSI Data Exchange Matrix) to a (3) data acquisition computer. The telemetry system makes it possible to continuously record blood pressure, heart rate and body motion of conscious animals in their usual habitat.
The studies were conducted on adult female Wistar rats with a body weight of >200 g. After transmitter implantation, the experimental animals were housed singly in type III Makrolon® cages. They had free access to standard feed and water. The day/night rhythm in the test laboratory was set by changing the illumination of the room.
The telemetry transmitters used (PA-C40, DSI) were surgically implanted under aseptic conditions in the experimental animals at least 14 days before the first experimental use.
For the implantation, the fasted animals were anaesthetized with isoflurane (IsoFlo®, Abbott, initiation 5%, maintenance 2%) and shaved and disinfected over a large area of their abdomens. […]
Each of the instrumented rats living in the system was assigned a separate receiving antenna (RPC-1 Receiver, DSI). […] The signals emitted were detected online by a data acquisition system (Dataquest™ A.R.T. for Windows, DSI) and processed accordingly.
In the standard procedure, the following were measured for 10-second periods in each case: (1) systolic blood pressure (SBP), (2) diastolic blood pressure (DBP), (3) mean arterial pressure (MAP) and (4) heart rate (HR) and (5) activity (ACT). These parameters were measured over 24 hours after administration.
The acquisition of measurements was repeated under computer control at 5-minute intervals. The source data obtained as absolute values were corrected in the diagram with the currently measured barometric pressure (Ambient Pressure Reference Monitor, APR-1, DSI). […]

[3] = system: diabetic (ZDFfa/fa) and healthy rats (Wistar); experiment: Assay of perfusion-enhancing substances (microcirculation), laser doppler at the paw; type: in vivo, rat
Text: In diabetic (ZDFfa/fa) and healthy rats (Wistar), a laser doppler probe was fastened under anaesthesia conditions (isoflurane anaesthesia) at the sole of the paw for measuring cutaneous microcirculation. The test animals were once treated orally with the test substances. During the experiment, microperfusion and temperature of the lower extremities were documented continuously. Here, a temperature-sensitive laser doppler probe (Periflux, O2C) was fastened with adhesive to the paws of the animals, allowing the measurement of microperfusion and skin temperature. The microcirculation measurement values were measured on both paws 30 min after oral administration of the test substance. […] Also stated is the MED for the significant increase of skin temperature (ttest).
Microcirculation data for adrenoreceptor α2C receptor antagonist of the compound of Example 8 and for the comparative substance ORM12741, an AR α2c receptor antagonist from Orion, are shown in Table 3: […]

recombinant human α2C receptor, sequence (P18825 whole entry, the tested form may be a part): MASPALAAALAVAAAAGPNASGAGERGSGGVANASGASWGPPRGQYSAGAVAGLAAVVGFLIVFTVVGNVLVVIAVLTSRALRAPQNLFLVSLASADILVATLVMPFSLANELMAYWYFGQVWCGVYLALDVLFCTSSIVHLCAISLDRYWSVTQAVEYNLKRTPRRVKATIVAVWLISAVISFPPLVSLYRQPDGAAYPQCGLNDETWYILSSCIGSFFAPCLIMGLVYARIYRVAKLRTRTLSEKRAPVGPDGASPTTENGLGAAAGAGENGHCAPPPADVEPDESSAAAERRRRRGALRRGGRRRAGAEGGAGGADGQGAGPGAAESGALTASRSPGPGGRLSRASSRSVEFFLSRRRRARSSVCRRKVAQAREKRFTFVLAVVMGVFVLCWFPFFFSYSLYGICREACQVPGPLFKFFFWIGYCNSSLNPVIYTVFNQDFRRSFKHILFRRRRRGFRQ

SMILES | IC50 [1] [nM] | further results
CCC(COC)Nc1ncc(C(=O)N2CCC(N3CCc4cc(OC)ccc4C3)CC2)cn1 (racemic) [Example 5, (rac)-{2-[(1-Methoxybutan-2-yl)amino]pyrimidin-5-yl}[4-(6-methoxy-3,4-dihydroisoquinolin-2(1H)-yl)piperidin-1-yl]methanone] | 20 | –
CCC(COC)Nc1ncc(C(=O)N2CCC(N3CCc4ccc(OC)cc4C3)CC2)cn1 (racemic) [Example 4, (rac)-{2-[(1-Methoxybutan-2-yl)amino]pyrimidin-5-yl}[4-(7-methoxy-3,4-dihydroisoquinolin-2(1H)-yl)piperidin-1-yl]methanone] | 5 | –
CCC(COC)Nc1ncc(C(=O)N2CCC(N3CCc4ccc(F)cc4C3)CC2)cn1 (racemic) [Example 2, (rac)-[4-(7-Fluoro-3,4-dihydroisoquinolin-2(1H)-yl)piperidin-1-yl]{2-[(1-methoxybutan-2-yl)amino]pyrimidin-5-yl}methanone] | 26 | –
CC1(C)CN(c2ncc(C(=O)N3CCC(N4CCc5ccccc5C4)CC3)cn2)CCO1 [Example 15, [4-(3,4-Dihydroisoquinolin-2(1H)-yl)piperidin-1-yl][2-(2,2-dimethylmorpholin-4-yl)pyrimidin-5-yl]methanone] | 68 | –
CCC(CO)Nc1ncc(C(=O)N2CCC(N3CCc4ccccc4C3)CC2)cn1 (racemic) [Example 7, (rac)-[4-(3,4-Dihydroisoquinolin-2(1H)-yl)piperidin-1-yl]{2-[(1-hydroxybutan-2-yl)amino]pyrimidin-5-yl}methanone] | 68 | –
O=C(c1cnc(N2CC3(COC3)C2)nc1)N1CCC(N2CCc3ccc(F)cc3C2)CC1 [Example 9, [4-(7-Fluoro-3,4-dihydroisoquinolin-2(1H)-yl)piperidin-1-yl][2-(2-oxa-6-azaspiro[3.3]hept-6-yl)pyrimidin-5-yl]methanone] | 16 | –
CC1CN(c2ncc(C(=O)N3CCC(N4CCc5ccccc5C4)CC3)cn2)CC(C)O1 (stereo not drawn) [Example 14, [4-(3,4-Dihydroisoquinolin-2(1H)-yl)piperidin-1-yl][2-(2,6-dimethylmorpholin-4-yl)pyrimidin-5-yl]methanone (Trans Isomer)] | 24 | –
CC1CN(c2ncc(C(=O)N3CCC(N4CCc5ccccc5C4)CC3)cn2)CC(C)O1 (stereo not drawn) [Example 13, [4-(3,4-Dihydroisoquinolin-2(1H)-yl)piperidin-1-yl][2-(2,6-dimethylmorpholin-4-yl)pyrimidin-5-yl]methanone (Cis Isomer)] | 47 | –
CCC(COC)Nc1ncc(C(=O)N2CCC(N3CCc4ccccc4C3)CC2)cn1 (racemic) [Example 6, (rac)-[4-(3,4-Dihydroisoquinolin-2(1H)-yl)piperidin-1-yl]{2-[(1-methoxybutan-2-yl)amino]pyrimidin-5-yl}methanone] | 31 | –
COCCNc1ncc(C(=O)N2CCC(N3CCc4ccccc4C3)CC2)cn1 [Example 1, [4-(3,4-Dihydroisoquinolin-2(1H)-yl)piperidin-1-yl]{2-[(2-methoxyethyl)amino]pyrimidin-5-yl}methanone] | 82 | –
O=C(O)[C@H]1CCCN1c1ncc(C(=O)N2CCC(N3CCc4ccccc4C3)CC2)cn1 [Example 11, 1-(5-{[4-(3,4-Dihydroisoquinolin-2(1H)-yl)piperidin-1-yl]carbonyl}pyrimidin-2-yl)-D-proline Hydrochloride] | 96 | –
COc1ccc2c(c1)CCN(C1CCN(C(=O)c3cnc(N4CC5(COC5)C4)nc3)CC1)C2 [Example 10, [4-(6-Methoxy-3,4-dihydroisoquinolin-2(1H)-yl)piperidin-1-yl][2-(2-oxa-6-azaspiro[3.3]hept-6-yl)pyrimidin-5-yl]methanone] | 30 | –
COC[C@@]1(C)CCCN2CCc3c(oc4ccccc34)[C@@H]21 [ORM-12741, reference compound] | – | blood pressure [2]: additional reduction in blood pressure; factor by which microcirculation is improved at the MED compared to placebo ([3]; single oral dose at MED, 30 min after administration): 1.9 x; MED microcirculation ([3]; single oral dose, measured 30 min after administration, significant vs placebo): 0.1 mg/kg; MED skin temperature ([3]; single oral dose, significant increase of skin temperature (ttest)): 0.01 mg/kg
O=C(c1cnc(N2CCS(=O)(=O)CC2)nc1)N1CCC(N2CCc3ccccc3C2)CC1 [Example 12, [4-(3,4-Dihydroisoquinolin-2(1H)-yl)piperidin-1-yl][2-(1,1-dioxidothiomorpholin-4-yl)pyrimidin-5-yl]methanone] | 26 | –
